{"source": "patent US3968207A", "about": "“Method of controlling fleas and ticks on cats and dogs” (priority 1975, dated 1976)", "origin": "cited, not measured here", "test_system": "lice", "conditions": "single spray treatment; cited from earlier work", "data": [{"smiles": "CCOP(=S)(OCC)Oc1nc(Cl)c(Cl)cc1Cl", "note": "[Dursban, O,O-diethyl O-(3,5,6-trichloro-2-pyridyl)phosphorothioate]", "values": [{"measurement": "control of lice on cattle", "value": "effective control"}]}]}
